Test results taken from patent publication US20220273754A1, “SS-31 FOR THE PREVENTION AND/OR TREATMENT OF ANEURYSM” (FUNDACIÓ INSTITUT DE RECERCA DE L'HOSPITAL DE LA SANTA CREU …, priority 2019, published 2022).
Non-standard residues stand in square brackets, D forms with d. No end group written: not given here.

Legend:
[1] = tested on: ApoE−/− mice infused with Ang II; test: Survival of Ang II-infused ApoE−/− mice; format: in vivo; details: 3 mg/kg/day with Ang II 1000 ng/kg/min by osmotic minipump, 28 days
Procedure: (§1) The studies were developed in ApoE^−/− mice bred in the facility. The animals were infused with Ang II dissolved in saline (1000 ng/kg/min) by means of osmotic minipumps (model 1004, Alzet) implanted subcutaneously in the interscapular space of the mice previous anesthesia with isoflurane. The procedure lasted approximately 15 minutes per animal. Immediately after surgery, antibiotics (penicillin, 22,000 u/Kg, i.m.) and analgesics (buprenorphine 0.05 mg/Kg, i.m.) were administered to prevent infections and limit discomfort in the animals. Further, mice were kept on a heating pad until they woke up after surgery and were carefully monitored during the post-surgery period.
(§2) A group of mice infused with Ang II were treated with SS-31 in the form of chloride and dissolved in saline (3 mg/kg/day). Another group of animals infused with Ang II were treated with the SS-20 peptide also in the form of chloride, dissolved in saline and at the same dose. Both were administered together with Ang II by osmotic mini pump during the whole study (28 days). The control group consisted of ApoE^−/− mice infused with saline.

[2] = tested on: ApoE−/− mice infused with Ang II; test: Aortic diameter and aneurysm incidence by ultrasonography in Ang II-infused ApoE−/− mice; format: in vivo; details: 28 days; for aortic diameter: 3 mg/kg/day with Ang II 1000 ng/kg/min by osmotic minipump, ultrasonography and macroscopic visualization; for incidence of AAA: 3 mg/kg/day with Ang II 1000 ng/kg/min, aneurysmal = external diameter >= 1.5 mm
Procedure: as §1, §2
The diameter of the aorta was evaluated weekly by abdominal echography using an ultrasound equipment (Vevo2100 Imaging systems; Visualsonics) with a 30 MHz transducer. The mice were anesthetized by inhalation of 1.5% isofluorane and secured in supine position on a thermal platform. After shaving the precord region, the transducer was applied to the abdominal wall to measure the abdominal aorta. Those abdominal aortas with external diameters greater than or equal to 1.5 mm were considered aneurysmal. All measurements were made from the captured images using the analysis software provided by Visualsonics.
(§3) After 4 weeks, the animals were euthanized under intraperitoneal terminal anesthesia with a mixture of medetomidine (1 mg/kg) and ketamine (75 mg/kg) in saline (final volume of 200 μl), the aortas were collected immediately, examined to determine the presence of aneurysms and fixed in paraformaldehyde or frozen in liquid nitrogen for subsequent RNA extraction.

[3] = tested on: abdominal aorta of ApoE−/− mice infused with Ang II; test: Histology (Masson's trichrome, orcein) of abdominal aorta of Ang II-infused ApoE−/− mice; format: in vivo; details: 3 mg/kg/day with Ang II 1000 ng/kg/min, 28 days
Procedure: as §1, §2, §3

MMP2 = MMP2 mRNA by real-time PCR in abdominal aorta of Ang II-infused ApoE−/− mice; format: in vivo; details: 3 mg/kg/day with Ang II 1000 ng/kg/min, 28 days; normalized to GAPDH
Procedure: as §1
as §2, with “saline. […]” for “saline.”
(§4) The expression levels (mRNA) of the metalloproteinases MMP2 and MMP9 in the abdominal aortas of the different study groups were also analyzed. […]

MMP9 = MMP9 mRNA by real-time PCR in abdominal aorta of Ang II-infused ApoE−/− mice; format: in vivo; details: 3 mg/kg/day with Ang II 1000 ng/kg/min, 28 days; normalized to GAPDH
Procedure: as §1
as §2, with “saline. […]” for “saline.”
as §4

[4] = tested on: mitochondrial permeability transition; details: cited from earlier work
[5] = tested on: reactive oxygen species (ROS) production and lipid peroxidation; details: direct inhibition; cited from earlier work
[6] = tested on: myocardial contractile force during ischemia-reperfusion; details: SS-20 given after ischemia; cited from earlier work
[7] = tested on: renal mitochondrial respiration; details: after ischemia; cited from earlier work
diabetic rats = details: cited from earlier work; for body weight: diabetic rats; for lipid metabolism: rat, in vivo
[8] = tested on: mitochondrial swelling and cytochrome c release; details: cited from earlier work
[9] = tested on: angiotensin II (AngII)-induced cardiac hypertrophy; details: in vivo; cited from earlier work
[10] = tested on: humans and rodents maintained on a high fat diet; details: cited from earlier work

F[dR]FK-NH2 [SS-20]
survival rate [1]: did not modify the survival rate | aortic diameter [2]: could not attenuate this increase in the aortic diameter | incidence of AAA [2]: did not alter the aortic diameter nor the incidence of aneurysms | disorganization and rupture of elastic fibers (orcein staining) [3]: not observed in animals treated with SS-20 | vascular remodeling: collagen deposition (Masson's trichrome) [3]: not by treatment with SS-20 | aortic MMP2 expression (mRNA) (MMP2): did not modify the increase in the mRNA level | aortic MMP9 expression (mRNA) (MMP9): did not modify the increase in the mRNA level | mitochondrial permeability transition [4]: inhibits mitochondrial permeability transition | ROS production and lipid peroxidation [5]: only SS-31 was demonstrated to directly inhibit | protection of myocardial contractile force [6]: offered no protection | renal mitochondrial respiration [7]: significantly improved renal mitochondrial respiration | body weight (diabetic rats): useful in reducing body weight | lipid metabolism (diabetic rats): beneficial effects on lipid metabolism

D-Arg-2′,6′-dimethyltyrosine-Lys-Phe-NH2 [SS-31]
survival rate [1]: significantly improved the survival rate | aortic diameter [2]: reduced the increase in aortic diameter significantly | incidence of AAA [2]: significantly decreased the incidence of AAA | disorganization and rupture of elastic fibers (orcein staining) [3]: limited the disorganization and rupture of elastic fibers | vascular remodeling: collagen deposition (Masson's trichrome) [3]: attenuated by treatment with SS-31 | aortic MMP2 expression (mRNA) (MMP2): attenuated this effect | aortic MMP9 expression (mRNA) (MMP9): attenuated this effect | mitochondrial permeability transition [4]: inhibits mitochondrial permeability transition | ROS production and lipid peroxidation [5]: directly inhibit reactive oxygen species (ROS) production and lipid peroxidation | mitochondrial swelling and cytochrome c release [8]: inhibits mitochondrial swelling and cytochrome c release | protection of myocardial contractile force [6]: protects myocardial contractile force | renal mitochondrial respiration [7]: significantly improved renal mitochondrial respiration | AngII-induced cardiac hypertrophy, fibrosis and diastolic dysfunction [9]: ameliorates | body weight (diabetic rats): useful in reducing body weight | lipid metabolism (diabetic rats): beneficial effects on lipid metabolism | insulin resistance [10]: attenuates insulin resistance
